Results: US10781171B2, “Substituted pyrrolidines as G-protein coupled receptor 43 agonists” (Epics Therapeutics, priority 2009, dated 2020)

Tested on: ob/ob mice
Test: Oral glucose tolerance test (OGTT) in ob/ob mice
Type: in vivo, mouse
Details: blood glucose AUC -15 to 120 min in OGTT, 50 mg/kg bi-daily for 28 days
Experimental: Ob/ob or obese mice are leptin-deficient mice that eat excessively and become profoundly obese, hyperinsulinemic and hyperglycemic. It is an animal model of type II diabetes. Such model can be used for oral glucose tolerance tests (OGTTs). A total of sixteen (16) male ob/ob mice (6 weeks of age) were obtained from Harlan. Upon arrival to the animal unit, mice were housed 4 per cage in rodent cages mounted with feeders containing regular chow. The mice were put in a 12/12h light-dark cycle (light from 0600-1800 h) with controlled temperature conditions (22-24° C.). Fed blood glucose and body-weight was measured on day −2 in the morning between 08:00 AM and 09:00 AM. Animals were randomized into 2 groups according to fed glucose levels (on day −2). […]
Day 1 is the first day of dosing. […] At −15 min, blood glucose was measured (using a glucose analyzer) and animals were dosed with compounds of the invention or vehicle. At time point 0, blood glucose was measured again and glucose was administered by oral gavage (1 g/kg glucose). The blood glucose was then measured at time points 15, 30, 45, 60 and 120 minutes. […] The percentages of AUC inhibition induced by compounds of the invention were calculated as follows: % of AUC inhibition: [1-(AUC compound/AUC vehicule)]*100.

## COc1ccccc1-c1ccc(C(=O)N2[C@@H](c3ccccc3Cl)CC[C@H]2C(=O)O)cc1 [Compound 1, (2S,5R)-5-(2-chlorophenyl)-1-(2′-methoxy-[1,1′-biphenyl]-4-carbonyl)pyrrolidine-2-carboxylic acid]
  % of AUC inhibition: 40%
